The text below walks through data of PMC7594851, “Enhanced oral bioavailability of an etoposide multiple nanoemulsion incorporating a deoxycholic acid derivative–lipid complex” (Drug Delivery, 2020).

In brackets after ≈: the same amount, converted by molar mass. Several values for one entry are separate records, joined by “and”; a condition that tells them apart may be missing. Equal values may be shown once. Where a name gives a salt, the structure may show the parent alone.

Usually solubility stands for the dissolved amount per volume that the medium holds. Low values mean little dissolved substance, high ones much dissolved substance. In general, Papp refers to the rate of passage across a membrane or cell layer, normalised by area and donor concentration. A higher Papp goes with ready permeation.

Data set [1] in a line: Droplet size, polydispersity index and zeta potential by dynamic laser light scattering. The conditions noted are these: mean ± SD, n=6. The data set is classed as physicochemical. On the procedure: The average droplet size, polydispersity index (PDI), and zeta potential of ELNE were determined using a dynamic laser light scattering analyzer (Malvern Zetasizer Nano ZS90; Malvern Instruments, Malvern, UK). Morphological evaluation of the selected ELNE was performed by transmission electron microscopy (JEM-200; JEOL, Tokyo, Japan).

Data set [2] is described as follows: Aqueous solubility of ETP and ETP/LMC complexes. The conditions noted are these: water; mean ± SD, n=6. The class given is physicochemical. From the text:
Supplement IDRD_A_1837293_SM2931.docx, table 3: Table S3. Aqueous solubilities of a physical complex of ETP and LMC and effective permeabilities of ETP and ETP/LMC or ETP and ETP/LMC-loaded nanoemulsion. | column: Aqueous solubility (μg/mL)

A short description of data set [3]: Parallel artificial membrane permeability assay (effective permeability, Pe). The conditions noted are these: PAMPA; Table S3: after dissolution of ETP or ETP/LMCs in water, or incorporation into the nanoemulsion; mean ± SD, n=6. The data set is classed as in vitro ADME. On the procedure: A parallel artificial membrane permeability assay was performed using pre-coated 96-well plates designed for this assay (Corning, Corning, NY) according to the manufacturer’s instructions. Briefly, 300 µL PBS (pH 6.8) was added to the receiver plate, and 200 µL of each formulation diluted in PBS (pH 6.8) containing 100 µg/mL ETP was added to each well of the filter plate. The plates were then assembled, and the system was incubated at room temperature for five hours without shaking. After five hours, the plates were disassembled, and samples were withdrawn from both the donor and acceptor plates. The concentration of ETP that permeated through the artificial membrane was measured by HPLC at 254 nm. […] The effective permeability (Pe) of each sample was calculated according to the formula: (1) Pe=−ln[1−CA(t)/Cequilibrium]/[A ×(1/VD+1/VA)×t] where Pe is the permeability (cm/s), A is the effective permeation area (0.288 cm^2), VD is the volume of the donor well (0.2 mL), VA is the volume of the acceptor well (0.3 mL), t is the total incubation time in s, CA(t) is the concentration of the drug in the acceptor well at time t, and Cequilibrium represents [CD(t) × VD + CA(t) × VA]/(VD + VA), where CD(t) denotes the concentration of the drug in the donor well at time t.
(In general: The PAMPA barrier holds no transporters, so it reflects passive diffusion.)

As for `COC(=O)C(CCCCN)NC(=O)CCC(C)C1CCC2C3CCC4CC(O)CCC4(C)C3CC(O)C12C` (stereo not drawn) [DCK, N^α-deoxycholyl-l-lysyl-methylester], in data set [1], the Particle size was 263 ± 42.4 nm; the Polydispersity index stood at 0.717 ± 0.107; the Zeta potential is 29.4 ± 0.57 mV and 29.4 ± 0.576 mV.

In data set [2], `COc1cc([C@@H]2c3cc4c(cc3[C@@H](O[C@@H]3O[C@@H]5CO[C@@H](C)O[C@H]5[C@H](O)[C@H]3O)[C@H]3COC(=O)[C@H]23)OCO4)cc(OC)c1O` [ETP, etoposide] yielded a solubility of 230 ± 29.4 µg/mL (≈ 391 µM). Besides, the Papp at 5 h, 100 µg/mL in data set [3] was 0.251 ± 0.063 ×10⁻⁶ cm/s.

With `CCCCCCCCCC(=O)OC[C@H](COP(=O)(O)O)OC(=O)CCCCCCCCC` [PA, 1,2-didecanoyl-sn-glycero-3-phosphate (sodium salt)], in data set [1], the Particle size is 276 ± 3.67 nm and the Polydispersity index stood at 0.330 ± 0.008.
